Test results: patent US20250134902A1, “DRUG REPURPOSING FOR DELAYED TREATMENT OF ISCHEMIC STROKE” (UNIVESRITY OF NORTH TEXAS HEALTH SCIENCE CENTER, priority 2022, published 2025)
Entries after “also recorded” stand apart in the source; their conditions may differ.

Legend:
[1] = target: T1, human Sigma-2 receptor (S2R) (Homo sapiens, UniProt Q5BJF2); test: Radioligand competition binding at Sigma-2 receptor ([3H]-DTG, untransfected MCF-7); details: displacement of 2.5 nM [3H]DTG, untransfected MCF-7 cells; average of 2-3 experiments ± SEM; read-out: S2R affinity (Ki)
T1 construct: these cells express the endogenous S2R; endogenous in cells; host or cells: untransfected human MCF-7 cells
T1 sequence (Q5BJF2 whole entry): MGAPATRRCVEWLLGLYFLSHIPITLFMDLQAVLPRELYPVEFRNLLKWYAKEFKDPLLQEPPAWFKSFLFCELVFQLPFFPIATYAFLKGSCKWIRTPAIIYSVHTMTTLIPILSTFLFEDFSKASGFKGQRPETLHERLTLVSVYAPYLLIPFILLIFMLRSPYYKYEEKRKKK
Experimental: Ki values were calculated from IC50 values using the Cheng-Prusoff equation.

[2] = Maximum tolerated dose, oral gavage 10 days; format: in vivo
Experimental: Measuring the maximum tolerated dose of Sigma receptor agonists. Male Sprague-Dawley rats (2-3 per dose) were treated by oral gavage with 6, 18, 54, 108, 135 or 150 mg/kg as estimated from in vitro functional assays and estimates of human intake when used as an antitussive. Rats received a single daily dose for 10 days. Weight, water intake, and food intake were measured daily, and rats were assessed for somnolence, activity, sensitivity to touch, and taste aversion. At the conclusion of the study, rats were humanely euthanized and brain tissue was collected and flash frozen.

[3] = tested on: rat model of focal cerebral ischemia (tMCAO); test: Neurological function after transient middle cerebral artery occlusion (Bederson, NDS, EBST); format: in vivo; details: for Neurological Deficit Score (NDS), Dunn's test: 135 mg/kg/d p.o.
Experimental: Evaluating the effect of Sigma receptor agonists in a rat model of focal cerebral ischemia. Rats were anesthetized with 5% isoflurane in oxygen and maintained at ˜2% through a nosecone. Core temperature was maintained with an infrared heating pad controlled by a rectal probe. Transient middle cerebral artery occlusion (tMCAO) was performed as previously described (Oppong-Gyebi et al., 2022). Briefly, a midline incision was made from the neck to the sternum. The left common carotid artery and bifurcation was mobilized, and a silicon-coated suture (Doccol, Sharon MA) was inserted through the external carotid artery into the internal carotid artery to reach the origin of the MCA at the base of the brain. The incision was closed, and rats were allowed to awaken so that successful occlusion could be assessed. Rats not displaying hemiparesis immediately post-surgery were excluded from the study. After 85-90 minutes occlusion, rats were anesthetized, and the suture was withdrawn to allow reperfusion. Rats were injected subcutaneously with 5 ml saline bilaterally to provide hydration during recovery. On the day following tMCAO, rats were assessed for persistent signs of stroke.
Only rats displaying hemiparesis immediately post-surgery were included in the study. Rats with a Bederson score of 0 or <50% contralateral bias on the elevated body swing test (EBST) (Borlongan and Sanberg, 1995) on Day 1 after tMCAO were excluded from the study. Animals that became moribund or died within 24 hours of tMCAO were excluded from the study.
Two days before tMCAO rats were trained to lick 5% sucrose from a 1 ml syringe. After behavioral assessment on Day 1 after tMCAO, rats were randomly assigned to 4 groups in a blinded fashion. Groups included sucrose Vehicle, or 45, 68 or 135 mg/kg oxeladin. Oxeladin was prepared in 5% sucrose and provided to rats from the end of a 1 ml syringe. Starting 48 hours after stroke, rats were administered treatments daily from day 3 to day 14. On days 3-14 rats were injected i.p. with 50 mg/kg bromodeoxyuridine (BrdU; Fisher Bioreagents). At the conclusion of the study, rats were euthanized under deep isoflurane anesthesia. Rats were transcardially perfused with cold saline and either decapitated for brain collection and flash freezing of brain tissue or transcardially perfused with 4% formaldehyde for immunohistochemical studies.
On days 1, 3, 7, and 14 after tMCAO, rats underwent a series of behavioral tests by a treatment blinded observer. All tests were performed in a room dimly lit with red light. Rats were assessed by the Bederson test (Bederson et al., 1986), and an 11-point Neurological Deficit test as previously described (Oppong-Gyebi et al., 2022). The elevated body swing test (EBST) was performed in an open field with 30 seconds between each of 20 lifts by the base of the tail (Borlongan and Sanberg, 1995). The EBST was scored as percent of nose swing to the contralateral side to the tMCAO.
The observer scored the rats using the Bederson test, which evaluates global neurological function and grades rodents on a scale of 0-5. Grade 0 (no defects) is assigned if animals extend both forelimbs toward the floor when suspended above the floor. Grade 1 (mild defects) is given when animals show forelimb flexion without any other abnormality. Grade 2 (modest defects) is given when animals display forelimb flexion and decreased resistance to lateral push toward the paretic side. Animals further showing circling behavior are scored Grade 3 (severe defects).
The observer also scored the rats using the Elevated Body Swing Test (EBST) in which rats lifted by the tail and held vertically swing their heads to the left or to the right. Whereas healthy animals on a group level are likely to swing approximately 50% to either side, animals with a unilateral cerebral lesion, e.g. ischemic stroke, should present with a dominant/biased swing direction.

BDNF = BDNF western blot in ischemic penumbra after tMCAO; format: in vivo, rat; details: single dose 135 mg/kg 48 hours after tMCAO; P=0.02
Experimental: Rats were sacrificed under isoflurane anesthesia 2, 6, or 24 hours after dosing, and brains were removed to assess protein expression in the ischemic and contralateral cortex by immunoblotting. Brains were rapidly removed, chilled for 2 min in ice-cold saline, and sliced into 2 mm coronal slices with a brain matrix for rapid 2,3,5 triphenyltetrazolium chloride (TTC) staining. Sections were immersed in 1% TTC for 1 minute at room temperature to reveal the extent of the infarct. Cortical penumbra tissue was collected, snap frozen, and stored at −80° C. for subsequent western blotting. Protein was extracted from tissue using T-PER™ reagent with HALT protease inhibitor (Thermo-Pierce), and concentrations were determined with the PIERCE® BCA assay (Thermo-Pierce). Protein was separated on 4-20% SDS-PAGE gels (BioRad) and transferred to nitrocellulose. Blots were probed with primary antibodies for BDNF (Abcam ab226842; 1:1000) and goat anti-rabbit-HRP secondary (Thermo 32260; 1:10,000). Bands were visualized by ECL with PIERCE® SUPERSIGNAL® West Dura Femto (Thermo-Pierce) reagent using a UVP EpiChemi3. Density was assessed with Image J and normalized to β-actin (Thermo MA1-91399; 1:1000).

[4] = 68 mg/kg/d p.o. starting 48 hours after tMCAO, days 7 and 14

Compound: CCN(CC)CCOCCOC(=O)C(CC)(CC)c1ccccc1 [Oxeladin]
- Ki [1]: 0.148 ± 0.064 µM
- mortality or overt toxicity ([2]; 6-150 mg/kg daily oral gavage, 10 days, male rats): no mortality or overt toxicity observed
- well-tolerated dose ([2]; rat, in vivo, po): ≥ 150 mg/kg
- Bederson score vs Vehicle [3, 4]: significantly improved
- Elevated Body Swing Test (EBST) vs Vehicle [3, 4]: significantly improved
- Bederson score vs Vehicle ([3]; 135 mg/kg/d p.o. starting 48 hours after tMCAO, days 3, 7 and 14): significant improvements; also recorded: significantly improved
- Neurological Deficit Score (NDS) vs Vehicle ([3]; 135 mg/kg/d p.o. starting 48 hours after tMCAO, days 3 and 7): significantly improved
- Elevated Body Swing Test (EBST) vs Vehicle ([3]; 135 mg/kg/d p.o. starting 48 hours after tMCAO, days 7 and 14): not 135 mg/kg showed improvement
- Neurological Deficit Score (NDS), Dunn's test ([3]; day 3 (P=0.072)): trend for improvement
- Neurological Deficit Score (NDS), Dunn's test ([3]; day 7 (P=0.028)): significant improvements
- functional recovery after tMCAO ([3]; overall conclusion, p.o. dosing): improves functional recovery
- ratio of mature 17 kDa BDNF to 42 kDa pro-BDNF in the ischemic penumbra (BDNF): significantly increased
